Each compound was assayed against T1, KRAS G12C 1-169, his-tagged protein, GDP-loaded (Homo sapiens, UniProt P01116, G12C) (assay: Biochemical assay: covalent modification of KRAS G12C measured by mass spectrometry (RapidFire/TOF or Q-Exactive)). Details: tested at 32 μM.
T1 construct: KRAS G12C 1-169, his-tagged protein, GDP-loaded
Assay type: binding
Outline: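 GDP-loaded KRAS G12C 1-169 (his-tagged, 2 μM or 0.5 μM in 20 mM Hepes, 150 mM NaCl, 1 mM MgCl2) reacted with compound at 32 μM or 8 μM final, then quenched with formic acid. Intact-protein LC-MS (RapidFire/TOF or Q-Exactive) with charge-envelope deconvolution; % modification from modified vs unmodified peak intensities.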
Also: time not given here.

**Q.** With `C=CC(=O)N1CCC2(CCCN(c3cc(OCc4ccccn4)cc(-c4c(C)ccc5[nH]ncc45)c3C#N)C2)C1` (centres unmarked) [Compound I-62, 2-(2-acryloyl-2,7-diazaspiro[4.5]decan-7-yl)-6-(5-methyl-1H-indazol-4-yl)-4-(pyridin-2-ylmethoxy) benzonitrile] as the compound, how does the Bind % read?
**A.** + (+ indicates binding activity greater than 0% and up to 50%)

**Q.** For `CC#CC(=O)N1CCC2(CCCN(c3cc(OCc4ccccn4)cc(-c4c(C)ccc5[nH]ncc45)c3C#N)C2)C1` (centres unmarked) [Compound I-63, 2-(2-(but-2-ynoyl)-2,7-diazaspiro[4.5]decan-7-yl)-6-(5-methyl-1H-indazol-4-yl)-4-(pyridin-2-ylmethoxy) benzonitrile], which Bind % is on record?
**A.** + (+ indicates binding activity greater than 0% and up to 50%)

**Q.** For `CC#CC(=O)N1CCC2(CC1)CN(c1cc(OCc3ccccn3)cc(-c3c(C)ccc4[nH]ncc34)c1C#N)C2` [Compound I-64, 2-(7-(but-2-ynoyl)-2,7-diazaspiro[3.5]nonan-2-yl)-6-(5-methyl-1H-indazol-4-yl)-4-(pyridin-2-ylmethoxy) benzonitrile], which Bind % is on record?
**A.** + (+ indicates binding activity greater than 0% and up to 50%)

**Q.** Which Bind % does the source give for `C=CC(=O)N1CCC2(CC1)CN(c1cc(OCc3ccccn3)cc(-c3c(C)ccc4[nH]ncc34)c1C#N)C2` [Compound I-65, 2-(7-acryloyl-2,7-diazaspiro[3.5]nonan-2-yl)-6-(5-methyl-1H-indazol-4-yl)-4-(pyridin-2-ylmethoxy) benzonitrile] here?
**A.** + (+ indicates binding activity greater than 0% and up to 50%)

**Q.** How did the Bind % turn out when `C=CC(=O)N1CCCC2(C1)CN(c1cc(OCc3ccccn3)cc(-c3c(C)ccc4[nH]ncc34)c1C#N)C2` [Compound I-66, 2-(6-acryloyl-2,6-diazaspiro[3.5]nonan-2-yl)-6-(5-methyl-1H-indazol-4-yl)-4-(pyridin-2-ylmethoxy) benzonitrile] was run?
**A.** + (+ indicates binding activity greater than 0% and up to 50%)

**Q.** How did the Bind % turn out when `CC#CC(=O)N1CCCC2(C1)CN(c1cc(OCc3ccccn3)cc(-c3c(C)ccc4[nH]ncc34)c1C#N)C2` [Compound I-67, 2-(6-(but-2-ynoyl)-2,6-diazaspiro[3.5]nonan-2-yl)-6-(5-methyl-1H-indazol-4-yl)-4-(pyridin-2-ylmethoxy) benzonitrile] was run?
**A.** + (+ indicates binding activity greater than 0% and up to 50%)

**Q.** Which Bind % does the source give for `Cc1ccc2cnn(C)c2c1-c1cc(N2CCCC(O)C2)cc(N2CCC3(CN(C(=O)/C=C/CN(C)C)C3)C2)c1C#N` (centres unmarked) [Compound I-69, (E)-2-(1,6-dimethyl-1H-indazol-7-yl)-6-(2-(4-(dimethylamino)but-2-enoyl)-2,6-diazaspiro[3.4]octan-6-yl)-4-(3-hydroxypiperidin-1-yl)benzonitrile] here?
**A.** + (+ indicates binding activity greater than 0% and up to 50%)

**Q.** Which Bind % does the source give for `Cc1ccc2[nH]ncc2c1-c1cc(N2CCCC(O)C2)cc(N2CCC3(CN(C(=O)/C=C/CN(C)C)C3)C2)c1C#N` (centres unmarked) [Compound I-70, (E)-2-(2-(4-(dimethylamino)but-2-enoyl)-2,6-diazaspiro[3.4]octan-6-yl)-4-(3-hydroxypiperidin-1-yl)-6-(5-methyl-1H-indazol-4-yl)benzonitrile] here?
**A.** ++ (++ indicates binding activity from 50 to 75%)

**Q.** Which Bind % does the source give for `CC#CC(=O)N1CC2(C1)CN(c1cc(OCc3ccccn3)cc(-c3c(C)ccc4[nH]ncc34)c1C#N)C2` [Compound I-73, 2-(6-(but-2-ynoyl)-2,6-diazaspiro[3.3]heptan-2-yl)-6-(5-methyl-1H-indazol-4-yl)-4-(pyridin-2-ylmethoxy) benzonitrile] here?
**A.** + (+ indicates binding activity greater than 0% and up to 50%)

**Q.** How did the Bind % turn out when `CC#CC(=O)N1CCCC2(CCN(c3cc(OCc4ccccn4)cc(-c4c(C)ccc5[nH]ncc45)c3C#N)C2)C1` (centres unmarked) [Compound I-74, 2-(7-(but-2-ynoyl)-2,7-diazaspiro[4.5]decan-2-yl)-6-(5-methyl-1H-indazol-4-yl)-4-(pyridin-2-ylmethoxy) benzonitrile] was run?
**A.** + (+ indicates binding activity greater than 0% and up to 50%)

**Q.** Which Bind % does the source give for `C=CC(=O)N1CCCC2(CCN(c3cc(OCc4ccccn4)cc(-c4c(C)ccc5[nH]ncc45)c3C#N)C2)C1` (centres unmarked) [Compound I-75, 2-(7-acryloyl-2,7-diazaspiro[4.5]decan-2-yl)-6-(5-methyl-1H-indazol-4-yl)-4-(pyridin-2-ylmethoxy) benzonitrile] here?
**A.** + (+ indicates binding activity greater than 0% and up to 50%)

**Q.** How did the Bind % turn out when `C=CC(=O)N1CC2(CCCN(c3cc(OCc4ccccn4)cc(-c4c(C)ccc5[nH]ncc45)c3C#N)C2)C1` [Compound I-78, 2-(2-acryloyl-2,6-diazaspiro[3.5]nonan-6-yl)-6-(5-methyl-1H-indazol-4-yl)-4-(pyridin-2-ylmethoxy) benzonitrile] was run?
**A.** + (+ indicates binding activity greater than 0% and up to 50%)

**Q.** With `CC#CC(=O)N1CC2(CCCN(c3cc(OCc4ccccn4)cc(-c4c(C)ccc5[nH]ncc45)c3C#N)C2)C1` [Compound I-79, 2-(2-(but-2-ynoyl)-2,6-diazaspiro[3.5]nonan-6-yl)-6-(5-methyl-1H-indazol-4-yl)-4-(pyridin-2-ylmethoxy) benzonitrile] as the compound, how does the Bind % read?
**A.** + (+ indicates binding activity greater than 0% and up to 50%)

**Q.** `C=CC(=O)N1CC2(CCN(c3cc(N4CCC(O)CC4)cc(-c4c(C)ccc5[nH]ncc45)c3C#N)CC2)C1` [Compound I-81, 2-(2-acryloyl-2,7-diazaspiro[3.5]nonan-7-yl)-4-(4-hydroxypiperidin-1-yl)-6-(5-methyl-1H-indazol-4-yl)benzonitrile] was tested. Which Bind % did it give?
**A.** + (+ indicates binding activity greater than 0% and up to 50%)

**Q.** `C=CC(=O)N1CC2(CCN(c3cc(N4CCC(N5CCN(C)[C@@H](C)C5)CC4)cc(-c4c(C)ccc5[nH]ncc45)c3C#N)CC2)C1` [Compound I-82, 2-(2-acryloyl-2,7-diazaspiro[3.5]nonan-7-yl)-4-(4-((S)-3,4-dimethyl-piperazin-1-yl)piperidin-1-yl)-6-(5-methyl-1H-indazol-4-yl)benzonitrile] was tested. Which Bind % did it give?
**A.** + (+ indicates binding activity greater than 0% and up to 50%)

**Q.** `C=CC(=O)N1CC2(CCN(c3ccc(OCCCN(C)C)c(-c4c(C)ccc5[nH]ncc45)c3C#N)CC2)C1` [Compound I-83, 6-(2-acryloyl-2,7-diazaspiro[3.5]nonan-7-yl)-3-(3-(dimethylamino)propoxy)-2-(5-methyl-1H-indazol-4-yl)benzonitrile] was tested. Which Bind % did it give?
**A.** + (+ indicates binding activity greater than 0% and up to 50%)

**Q.** How did the Bind % turn out when `C=CC(=O)N1CC2(CCN(c3cc(N4CCOCC4)c(OC)c(-c4c(C)ccc5[nH]ncc45)c3C#N)CC2)C1` [Compound I-84, 6-(2-acryloyl-2,7-diazaspiro[3.5]nonan-7-yl)-3-methoxy-2-(5-methyl-1H-indazol-4-yl)-4-morpholino-benzonitrile] was run?
**A.** + (+ indicates binding activity greater than 0% and up to 50%)

**Q.** With `C=CC(=O)N1CC2(CCN(c3ccc(Cl)c(-c4c(C)ccc5[nH]ncc45)c3C#N)CC2)C1` [Compound I-85, 6-(2-acryloyl-2,7-diazaspiro[3.5]nonan-7-yl)-3-chloro-2-(5-methyl-1H-indazol-4-yl)benzonitrile] as the compound, how does the Bind % read?
**A.** + (+ indicates binding activity greater than 0% and up to 50%)

**Q.** With `C=CC(=O)N1CCC2(CCN(c3ccc(F)c(-c4c(C)ccc5[nH]ncc45)c3C#N)CC2)C1` [Compound I-94, 6-(2-acryloyl-2,8-diazaspiro[4.5]decan-8-yl)-3-fluoro-2-(5-methyl-1H-indazol-4-yl)benzonitrile] as the compound, how does the Bind % read?
**A.** + (+ indicates binding activity greater than 0% and up to 50%)

**Q.** For `C=CC(=O)N1CCC2(C1)CN(c1ccc(F)c(-c3c(C)ccc4[nH]ncc34)c1C#N)C2` [Compound I-95, 6-(6-acryloyl-2,6-diazaspiro[3.4]octan-2-yl)-3-fluoro-2-(5-methyl-1H-indazol-4-yl)benzonitrile], which Bind % is on record?
**A.** + (+ indicates binding activity greater than 0% and up to 50%)

**Q.** With `C=CC(=O)N1CCC2(CC1)CN(c1ccc(F)c(-c3c(C)ccc4[nH]ncc34)c1C#N)C2` [Compound I-96, 6-(7-acryloyl-2,7-diazaspiro[3.5]nonan-2-yl)-3-fluoro-2-(5-methyl-1H-indazol-4-yl)benzonitrile] as the compound, how does the Bind % read?
**A.** + (+ indicates binding activity greater than 0% and up to 50%)

**Q.** How did the Bind % turn out when `C=CC(=O)N1CC2(CCN(c3cc(N4CCOCC4)c(F)c(-c4c(C)ccc5cnn(C)c45)c3C#N)CC2)C1` [Compound I-97, 6-(2-acryloyl-2,7-diazaspiro[3.5]nonan-7-yl)-2-(1,6-dimethyl-1H-indazol-7-yl)-3-fluoro-4-morpholino-benzonitrile] was run?
**A.** + (+ indicates binding activity greater than 0% and up to 50%)

Same assay, conditions: tested at a concentration of 8 μM

**Q.** How did the Bind % turn out when `C=CC(=O)N1CC2(CCN(c3cc(OCc4ccccn4)cc(-c4c(C)ccc5[nH]nc(C)c45)c3C#N)C2)C1` [Compound I-71, 2-(2-acryloyl-2,6-diazaspiro[3.4]octan-6-yl)-6-(3,5-dimethyl-1H-indazol-4-yl)-4-(pyridin-2-ylmethoxy) benzonitrile] was run?
**A.** +++ (+++ indicates binding activity greater than 75%)

**Q.** How did the Bind % turn out when `C=CC(=O)N1CC2(C1)CN(c1cc(OCc3ccccn3)cc(-c3c(C)ccc4[nH]ncc34)c1C#N)C2` [Compound I-72, 2-(6-acryloyl-2,6-diazaspiro[3.3]heptan-2-yl)-6-(5-methyl-1H-indazol-4-yl)-4-(pyridin-2-ylmethoxy) benzonitrile] was run?
**A.** +++ (+++ indicates binding activity greater than 75%)

**Q.** With `C=CC(=O)N1CC2(CCN(c3cc(N4CCCC(O)C4)cc(-c4c(C)ccc5[nH]nc(C)c45)c3C#N)C2)C1` (centres unmarked) [Compound I-76, 2-(2-acryloyl-2,6-diazaspiro[3.4]octan-6-yl)-6-(3,5-dimethyl-1H-indazol-4-yl)-4-(3-hydroxypiperidin-1-yl)benzonitrile] as the compound, how does the Bind % read?
**A.** ++ (++ indicates binding activity from 50 to 75%)

**Q.** Which Bind % does the source give for `C=CC(=O)N1CC2(CCN(c3cc(N4CCOCC4)c(F)c(-c4c(C)ccc5[nH]ncc45)c3C#N)CC2)C1` [Compound I-80, 6-(2-acryloyl-2,7-diazaspiro[3.5]nonan-7-yl)-3-fluoro-2-(5-methyl-1H-indazol-4-yl)-4-morpholino-benzonitrile] here?
**A.** + (+ indicates binding activity greater than 0% and up to 50%)

Source: US20210380595A1 (ARAXES PHARMA LLC, priority 2018, published 2021)
